{"source": "patent US20240226287A1", "about": "“NOVEL LIPID COMPOUND AND LIPID NANOPARTICLE COMPOSITION COMPRISING THE SAME” (KOREA INSTITUTE OF SCIENCE AND TECHNOLOGY, priority 2022, published 2024)", "data": [{"tested_on": "Renilla Luciferase (R/L) mRNA", "assay": "Delivery efficiency: R/L protein expression after i.d. injection of mRNA-LNP into mouse ears (luminescence)", "format": "in vivo, ICR mice", "conditions": "conclusion from FIGS. 4 to 8; replacing cholesterol/butyl lithocholate in LNP", "procedure": "mRNA-LNP was injected into the ears of ICR mice by I.D. in an amount of 5 μg/20 μl based on RNA to identify expression.\nThe experimental process is as follows. Each experimental group was prepared in a dose of 5 μg/20 μl based on RNA and then injected into each ear of mice by I.D. Thereafter, the expression was identified according to the maximum expression time of a target protein. In the case of R/L on which the experiment was actually carried out, expression and maintenance were identified according to two time periods which are 6 hours and 24 hours.\nAfter anesthesia using an individual respiratory anesthesia machine, a drug to be administered that is suitable for the experimental condition was injected via an insulin syringe. Thereafter, euthanasia was performed using CO2 at each corresponding time, and then ears were cut off. While dipping the cut ears in 300 μl of 1× Renilla Lyswas buffer, ears were completely crushed using scissors and a homogenizer instrument. Thereafter, 20 μl was taken from the mixture solution, transferred to a white 96-well plate, and added with 100 μl of Promega's Renilla luciferase assay substrate, and then luminescence was measured to compare expression.", "values": [{"smiles": "O=c1cc(-c2ccc(O)c(O)c2)oc2cc(O)cc(O)c12", "note": "[luteolin]", "effect as substitute for the structure-retaining compound (R/L expression of the LNP)": "excellent effects"}, {"smiles": "C[C@H](CCC(=O)O)[C@H]1CC[C@H]2[C@@H]3CC[C@@H]4CC(=O)CC[C@]4(C)[C@H]3CC[C@]12C", "note": "[3-oxo-5β-cholanoic acid]", "effect as substitute for the structure-retaining compound (R/L expression of the LNP)": "excellent effects"}, {"smiles": "CC1=C(/C=C/C(C)=C/C=C/C(C)=C/C=C/C=C(C)/C=C/C=C(C)/C=C/C2=C(C)CCCC2(C)C)C(C)(C)CCC1", "note": "[beta-carotene]", "effect as substitute for the structure-retaining compound (R/L expression of the LNP)": "excellent effects"}]}]}
